Measured values reported in PubChem BioAssay AID2060901 (Molecular Pharmacology Branch, DTP, NCI, 2025).

Tested on: 422866-222-R5-J1-PDC complex spheroids viability
Assay: Anticancer human tumor 422866-222-R5-J1-PDC patient-derived pancreatic adenocarcinoma cell line growth inhibition [RAS]
Settings: for IC50: curve of first compound; for viability, T/C: stronger effect = lower value
Description: RAS pathway inhibitors in Combinations in Complex Spheroids
A high-throughput screen of multi-cell type tumor spheroids was designed to identify active combinations of RAS pathway inhibitors and targeted small molecules. Complex spheroids include a stromal component modeled by human endothelial cells (HUVEC) and fibroblasts modeled by human mesenchymal stem cells (MSCs). The concentration ranges selected for each drug and investigational agent were based upon clinically achievable concentrations if the clinical Cmax of the agent was known.
Compounds. The drugs and investigational agents: abemaciclib (NSC768073), cobimetinib (NSC768068), divarasib (GDC6063, NSC841802), docetaxel (NSC628503), GDC-1971 (RLY-1971, NSC841576), gemcitabine (NSC613327), inavolisib (NSC800729), ipatasertib (NSC767898), KB-0742 (NSC834161), MRTX-1133 (NSC836407), osimertinib (NSC779217), RMC-4630 (NSC839698), RMC-6236 (NSC851965), RMC-6291 (NSC852671), Ro-3306 (NSC812927), sapanisertib (NSC764658), SN-38 (NSC673596), staurosporine (NSC755774), SY5609 (NSC837396), and tovorafenib (DAY101, NSC766906), were obtained from the National Cancer Institute (NCI) Developmental Therapeutics Program Chemical Repository. The FDA-approved anticancer drug set is available from the NCI Developmental Therapeutics Program. […] The stock solutions were prepared in dimethyl sulfoxide (DMSO, Sigma-Aldrich, St. Louis, MO, cat. D2650) at 800-fold the tested concentration and stored at -70 degrees C prior to their use. All drugs and investigational agents were tested over a range starting from a high concentration at or near the clinical Cmax and decreasing in half-log increments. If the clinical Cmax for an agent had not been determined, the highest concentration tested was 10 microM.
Cell Culture. All cells were maintained in an incubator at 37 degrees C and 5% CO2 with 95% humidity. The PDC lines were cultured according to standard operating procedures established by the NCI PDMR. All PDCs were thawed and cultured in Matrigel-coated flasks prepared with a working solution of 1X Ham's F-12 nutrient mix, without supplementation (Invitrogen, Waltham, MA, cat. 11765054), 100 U/mL penicillin-streptomycin (Invitrogen, cat. 15140122), and 2.5% Matrigel (Corning Inc., Corning, NY, cat. 354248) for the first three passages. The 362531-283-R-J2-PDC and 782815-120-R-J1-PDC lines were cultured in 6C/Colon 1B media, which includes advanced DMEM/F-12 (Thermo Fisher Scientific, cat. 12634028), 10 mM HEPES (Thermo Fisher Scientific, cat. 15630080), 1X GlutaMAX supplement (Thermo Fisher Scientific, cat. 35050061), 0.1 mg/mL primocin (InvivoGen, San Diego, CA, cat. ant-pm-2), 10% defined fetal bovine serum, heat inactivated (HyClone Laboratories Inc., Logan, UT, cat. SH30070.03HI), 50% L-WRN conditioned media (ATCC, cat. CRL-3276), 1.25 mM N-Acetyl-L-cysteine (Sigma-Aldrich, cat. A9165), 10 mM nicotinamide (Sigma-Aldrich, cat. N0636), 1X B-27 supplement (Thermo Fisher Scientific, cat. 17504044), 1X N-2 supplement (Thermo Fisher Scientific, cat. 17502048), 50 ng/mL human EGF (Thermo Fisher Scientific, cat. PHG0311), and 10 microM Y-27632 dihydrochloride (Tocris Bioscience, cat. 1254). The K12877-001-R-J1-PDC line was cultured in 6I media, which includes all 6C/Colon 1B media plus 10 ng/mL human FGF-10 (PeproTech, cat. 100-26), 1 ng/mL human FGF-2 (PeproTech, cat. 100-18B), 1 µM prostaglandin E2 (Tocris Bioscience, cat. 2296), […] hydrocortisone (Sigma-Aldrich, cat. H4001), and […] bovine insulin (Sigma-Aldrich, cat. I6634). The K86415-001-R-J1-PDC line was cultured in 6D media, which includes all 6C/Colon 1B media components minus the L-WRN conditioned media. The 485176-168-R4-J1-PDC was cultured in PANC media, which includes all 6C/Colon 1B media plus 100 ng/mL human FGF-10 (PeproTech, cat. 100-26), 500 nM SB-431542 (Selleckchem, cat. S1067), and 10 nM gastrin (Tocris Bioscience, cat. 3006). […]
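Also: spheroids exposed to compounds for 7 days.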
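For viability, T/C in this document: 100% = DMSO vehicle control viability.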

## Cc1nc(N2CCC3(CC2)COC(C)C3N)c(CO)nc1Sc1ccnc(N)c1Cl (configuration not stated) + CCn1c(-c2cc(N3CCN(C)CC3)cnc2C(C)OC)c2c3cc(ccc31)-c1csc(n1)CC(NC(=O)C1CC1C)C(=O)N1CCCC(N1)C(=O)OCC(C)(C)C2
Second compound 0.000949 µM
  IC50: < 31.6 nM
Second compound 0.003 µM
  IC50: < 31.6 nM
Second compound 0.00949 µM
  IC50: < 31.6 nM
Second compound 0.03 µM
  IC50: < 31.6 nM
Second compound 0.0949 µM
  IC50: < 31.6 nM
Second compound 0.3 µM
  IC50: < 31.6 nM
Second compound 0.000949 µM, first compound 0.0316 µM
  viability, T/C: 29.3%
Second compound 0.000949 µM, first compound 0.1 µM
  viability, T/C: 23.1%
Second compound 0.000949 µM, first compound 0.316 µM
  viability, T/C: 21.6%
Second compound 0.000949 µM, first compound 1 µM
  viability, T/C: 17.4%
Second compound 0.000949 µM, first compound 3.16 µM
  viability, T/C: 18.1%
Second compound 0.000949 µM, first compound 10 µM
  viability, T/C: 20.2%
Second compound 0.003 µM, first compound 0.0316 µM
  viability, T/C: 23.6%
Second compound 0.003 µM, first compound 0.1 µM
  viability, T/C: 18.5%
Second compound 0.003 µM, first compound 0.316 µM
  viability, T/C: 16.3%
Second compound 0.003 µM, first compound 1 µM
  viability, T/C: 16.7%
Second compound 0.003 µM, first compound 3.16 µM
  viability, T/C: 18.1%
Second compound 0.003 µM, first compound 10 µM
  viability, T/C: 21.2%
Second compound 0.00949 µM, first compound 0.0316 µM
  viability, T/C: 19.2%
Second compound 0.00949 µM, first compound 0.1 µM
  viability, T/C: 16.1%
Second compound 0.00949 µM, first compound 0.316 µM
  viability, T/C: 19.1%
Second compound 0.00949 µM, first compound 1 µM
  viability, T/C: 15.8%
Second compound 0.00949 µM, first compound 3.16 µM
  viability, T/C: 20.8%
Second compound 0.00949 µM, first compound 10 µM
  viability, T/C: 22.1%
Second compound 0.03 µM, first compound 0.0316 µM
  viability, T/C: 17.4%
Second compound 0.03 µM, first compound 0.1 µM
  viability, T/C: 16.3%
Second compound 0.03 µM, first compound 0.316 µM
  viability, T/C: 18.6%
Second compound 0.03 µM, first compound 1 µM
  viability, T/C: 17.5%
Second compound 0.03 µM, first compound 3.16 µM
  viability, T/C: 20.3%
Second compound 0.03 µM, first compound 10 µM
  viability, T/C: 20.4%
Second compound 0.0949 µM, first compound 0.0316 µM
  viability, T/C: 21%
Second compound 0.0949 µM, first compound 0.1 µM
  viability, T/C: 20.6%
Second compound 0.0949 µM, first compound 0.316 µM
  viability, T/C: 20%
Second compound 0.0949 µM, first compound 1 µM
  viability, T/C: 17.8%
Second compound 0.0949 µM, first compound 3.16 µM
  viability, T/C: 21.7%
Second compound 0.0949 µM, first compound 10 µM
  viability, T/C: 22.3%
Second compound 0.3 µM, first compound 0.0316 µM
  viability, T/C: 20.1%
Second compound 0.3 µM, first compound 0.1 µM
  viability, T/C: 20.2%
Second compound 0.3 µM, first compound 0.316 µM
  viability, T/C: 21.2%
Second compound 0.3 µM, first compound 1 µM
  viability, T/C: 18.1%
Second compound 0.3 µM, first compound 3.16 µM
  viability, T/C: 22.7%
Second compound 0.3 µM, first compound 10 µM
  viability, T/C: 24.4%
